“Also recorded” adds a separate entry of the source. Counter-ions that a name gives are not always drawn. Like-named read-outs stand apart in the source and are kept apart here.
What was measured:
[1] = test system: Trypanosoma cruzi epimastigotes (STIB 980 strain); experiment: Activity on T. cruzi epimastigotes (resazurin, 72 h); assay type: cell-based
Protocol: (§1) L6 cells derived from rat skeletal myoblast (ATCC CRL-1458) were used as host cells for T. cruzi using trypomastigotes of Tulahuen C2C4 strain (DTU VI) expressing the β-galactosidase gene (LacZ) ([Buckner et al., 1996]). The cultures were sustained in RPMI-1640 supplemented with 10% inactivated fetal bovine serum (FBS) and […] at 5% CO2 and 37°C. Epimastigote T. cruzi (STIB 980 strain, DTU TcI) were cultivated at 28°C in liver infusion tryptose (LIT) medium supplemented with hemin (2 μg/ml) and 10% FBS and were used in log phase of growth. Bloodstream trypomastigotes (Y strain, DTU II) were isolated from Swiss Webster mice infected at the peak of parasitemia (≥ 2.5 × 10^6/ml), as reported ([Meirelles et al., 1986]).
Epimastigotes (10^7 parasites/ml) were incubated for 72 h at 28°C with serially diluted compound concentrations (eleven 1:3 dilutions) in supplemented LIT medium. Parasite viability and motility were evaluated by direct observation by light microscopy and fluorometric assays performed with resazurin (12.5 mg resazurin dissolved in 100 ml distilled water). After 2–4 h of incubation with resazurin solution, plates were read in Spectramax Gemini XS microplate fluorometer (Molecular Devices Cooperation, USA) using wavelengths of 536 nm (excitation) and 588 nm (emission) ([Räz et al., 1997]). Growth was expressed as percentage of the values of solvent-treated controls. The graphics program Softmax Pro (Molecular Devices) was used to construct dose–response curves and calculate EC50 (half maximal inhibitory concentration) values. Bz was used as reference drug.

[2] = test system: Trypanosoma cruzi intracellular amastigotes (Tulahuen strain in rat L6 myoblasts); experiment: Activity on T. cruzi intracellular amastigotes in L6 cells (LacZ/CPRG, 96 h); assay type: cell-based; details: for EC50: read-out: Amastigotes (mean ± SD) EC50; for EC90: read-out: Amastigotes (mean ± SD) EC90
Protocol: as §1
Rat skeletal myoblasts (L6 cell lines) were seeded in 96-well plates (10^4 cells/well) in 100 μl RPMI 1640 medium supplemented with 10% fetal bovine serum (FBS) and 2 mM L-glutamine. The medium was removed after 24 h incubation and replaced by 100 μl of fresh medium containing 10^5 LacZ trypomastigotes (Tulahuen DTU VI). After 48 h, the medium was again removed and replaced with or without a serial of compound concentrations (eleven three-fold dilution steps). After 96 h of compound exposure, CPRG/Nonidet (50 μl) substrate was added and the reading performed after 2–6 h at 540 nm in Versamax microplate reader (Molecular Devices Cooperation, USA). Growth was expressed as percentage of the values of solvent-treated controls. The graphics program Softmax Pro (Molecular Devices) was used to construct dose–response curves and calculate EC50 values. Bz was used as reference drug.

[3] = Cytotoxicity against L6 cells (resazurin, 72 h); assay type: cell-based, rat
Protocol: Rat skeletal myoblasts (L6 cell lines) were seeded in 96-well plates (4 × 10^4 cells/well) in 100 μl RPMI 1640 medium supplemented with 10% fetal bovine serum (FBS) and 2 mM L-glutamine. After 24 h incubation the medium was replaced with 100 μl of fresh medium with or without a serial dilution of compound concentrations (eleven three-fold dilution steps). After 72 h of compound exposure, fluorescent dye resazurin (10 μl, 12.5 mg resazurin dissolved in 100 ml water) was added for 2 h and the readings performed at Spectramax Gemini XS microplate fluorometer (Molecular Devices Cooperation, USA), with excitation wavelength of 536 nm and an emission wavelength of 588 nm. Growth was expressed as percentage of the values of solvent-treated controls. The graphics program Softmax Pro (Molecular Devices) was used to construct dose–response curves and calculate EC50 values. Podophyllotoxin (a microtubule destabilizing agent) was used as positive control.

T. cruzi (Y strain) = experiment: Mouse model of acute T. cruzi infection: parasitemia and mortality; assay type: in vivo, Trypanosoma cruzi
Protocol: Male Swiss Webster mice (18–23 g) were obtained from the Instituto de Ciência e Tecnologia em Biomodelos (ICTB/Fiocruz) (Rio de Janeiro, Rio de Janeiro, Brazil). Five mice were housed per cage, kept in a conventional room at 20–24°C under 12 h/12 h light/dark cycle. Sterilized water and chow were provided ad libitum. The animals were acclimated for 7 days before being used in the different assays. All procedures were done following Biosafety Guidelines in compliance with the Fiocruz and all animal procedure approved by the Committee of Ethics for the Use of Animals (CEUA L-38/17).
Male mice (n = 5 per group) were infected i.p. with 10^4 bloodstream trypomastigotes of T. cruzi (Y strain). Only mice with positive parasitemia at day 5 post infection (dpi) were included in the studies. […] Uninfected and T. cruzi-infected mice treated only with vehicle (aqueous solution of 0.5% carboxymethylcellulose) were age-matched and housed under identical conditions and used as controls ([Simões-Silva et al., 2017]). All compound formulations were freshly prepared before every administration.
All animals were individually checked for circulating blood parasitemia by counting the number of parasites in 5 µl of blood taken from the tail vein and investigated under the microscope ([Brener, 1962]). Parasitemia was checked till 30 dpi, while mortality was checked daily up to 30 days after the administration of the last dose. Mortality was given as percentage of cumulative mortality (CM) ([Simões-Silva et al., 2017]).

[4] = Toxicity in female mice after p.o. administration; assay type: in vivo; details: up to 200 mpk (data not shown)
[5] = test system: T. cruzi epimastigote cultures; parameters: method as in Chataing et al., 1998; details: after four days of incubation; ref Chataing et al., 1998; read-out: Concentration inhibiting growth of epimastigote cultures to 50%; cited from earlier work
[6] = STIB980, STIB 980 strain, 72 h, n = 3, read-out: Epimastigotes (mean ± SD) EC50
[7] = STIB980, STIB 980 strain, 72 h, n = 3, read-out: Epimastigotes (mean ± SD) EC90
[8] = EC50 on mammalian L6 cells versus EC50 on intracellular amastigotes
[9] = Trypanosoma cruzi, TULAHUEN, L6, 96 h, Tulahuen strain in rat L6 myoblasts, 96 h, n = 3
[10] = Trypanosoma cruzi, Tulahuen strain in rat L6 myoblasts, 96 h, n = 3
[11] = Tulahuen strain in rat L6 myoblasts, 96 h, n = 3
[12] = L6 rat skeletal myoblast cells, rat L6 myoblasts, 72 h, n = 3, read-out: L6 cells (mean ± SD) EC50
[13] = rat L6 myoblasts, 72 h, n = 3, read-out: L6 cells (mean ± SD) EC50
[14] = TH alone, all tested doses (up to 5 mpk) p.o., 10 days, mice
[15] = Trypanosoma cruzi, TULAHUEN, L6, 96 h

Structure (SMILES)	EC50 [1, 6]	EC90 [1, 7]	SI (Selectivity Index) [2, 8]	EC50 [2, 9]	EC90 [2, 10]	EC50 at 72 h ([3]; rat)	other results
OCC1C(O)C(O)C(O)CN1CCCCCOCC12CC3CC(CC(C3)C1)C2 (stereo not shown) [AMP-Deoxy nojirimycin, AMP-Deoxynojirimycin]	158 ± 5.9 µM	237 ± 2 µM	1.2	34.8 ± 15.1 µM	66.6 ± 15.4 µM	40.4 ± 10.9 µM	–
O=C(Cn1ccnc1[N+](=O)[O-])NCc1ccccc1 [Benznidazole]	13.9 ± 2.2 µM	101 ± 18 µM	>172	2.2 µM	6.61 ± 2.5 µM	> 384 µM	EC50 [2, 11]: 2.22 ± 0.98 µM
S=C(S)OC1CC2CC1C1CCCC21 (stereo not shown) [D609 (potassium salt), D609]	154 ± 32 µM	> 375 µM	–	99.4 ± 17.6 µM	198 ± 32 µM	–	SI (Selectivity Index) [2]: 2.5; EC50 at 72 h [3, 12]: 247 ± 20 µM
CC(C)(Oc1ccc(CCNC(=O)c2ccc(Cl)cc2)cc1)C(=O)O [Bezafibrate]	> 276 µM	> 276 µM	–	132 ± 38.6 µM	226 ± 65 µM	–	SI (Selectivity Index) [2]: >2.1; EC50 at 72 h [3, 12]: > 276 µM
C[C@H]1CC[C@]2(NC1)O[C@H]1C[C@H]3[C@@H]4CC[C@H]5C[C@@H](O)CC[C@]5(C)[C@H]4CC[C@]3(C)[C@H]1[C@@H]2C [Tomatidine (hydrochloride), Tomatidine]	192 ± 8.1 µM	> 221 µM	115	≤ 1 µM	1.8 ± 0.2 µM	–	EC50 [2, 11]: 0.78 ± 0.2 µM; EC50 at 72 h [3, 13]: 89.5 ± 26.7 µM; Maximum reduction in blood parasitemia on the peak (T. cruzi (Y strain); [14]): ≤ 28%; Protection against mortality induced by the infection (T. cruzi (Y strain); [14]): all animals died by 20 dpi; Antiparasitic activity in vivo (T. cruzi (Y strain); TH alone, doses 0.5 to 5 mg/kg, acute mouse model, listed as TH): lack of antiparasitic activity; also recorded: did not present antiparasitic activity; Signs of toxicity [4]: did not show any signs of toxicity; EC50 [5]: 5.7 µM
C=CCN(C)CCCCCCOc1ccc(C(=O)c2ccc(Br)cc2)c(F)c1 [Ro48-8071]	11.6 ± 6.1 µM	29.4 ± 16.2 µM	12	–	2.5 ± 1.9 µM	5.7 ± 2.4 µM	EC50 ([2]; Tulahuen strain in rat L6 myoblasts, 96 h, n = 3, listed as RO48-8071): ≤ 1 µM; EC50 [2, 11]: 0.47 ± 0.09 µM
NC1CN2CCC1CC2 (stereo not shown) [3-Amino quinuclidine dihydrochloride, 3-Amino quinuclidine]	> 502 µM	> 502 µM	>1.8	268 ± 10 µM	485 ± 28 µM	> 502 µM	–
O=C(/C=C/c1ccc(/C=C/C(=O)Nc2ccc(C3=NCCN3)cc2)cc1)Nc1ccc(C2=NCCN2)cc1 [GW4869 (hydrochloride hydrate), GW4869]	> 173 µM	> 173 µM	>1.7	106 ± 44 µM	> 173 µM	–	EC50 at 72 h [3, 13]: > 173 µM
CC[C@@H]([C@H](C)O)n1ncn(-c2ccc(N3CCN(c4ccc(OC[C@@H]5CO[C@@](Cn6cncn6)(c6ccc(F)cc6F)C5)cc4)CC3)cc2)c1=O [Posaconazole]	> 14.2 µM	> 14.2 µM	>700	0.002 ± 0.001 µM	0.016 ± 0.005 µM	> 1.42 µM	Decrease of the parasitemia peak (T. cruzi (Y strain); Posa 1.25 mpk (suboptimal dose) p.o., 10 days (5-14 dpi), mice): about 80%; Animal survival (T. cruzi (Y strain); Posa 1.25 mpk p.o., 10 days (5-14 dpi)): 20%; Survival of mice (T. cruzi (Y strain); Posa 10 mpk p.o., 10 days (5-14 dpi)): 40%; Effect on parasitemia on the peak (8 dpi) (T. cruzi (Y strain); Posa 10 mpk p.o., 10 days (5-14 dpi), mice): suppressed parasitemia on the peak; Signs of toxicity [4]: did not show any signs of toxicity
CN(C)CCC=C1c2ccccc2CCc2ccccc21 [Amitriptyline (hydrochloride), Amitriptyline]	59.9 ± 5.4 µM	96.8 ± 3.3 µM	1.4	12.2 ± 3.6 µM	20.9 ± 3 µM	–	EC50 at 72 h [3, 13]: 17.2 ± 1.2 µM
CCCCCCCCc1ccc(CCC(N)(CO)CO)cc1 [FTY720]	7.55 ± 0.4 µM	11.6 ± 0.3 µM	0.5	≤ 1 µM	1.84 ± 1.3 µM	0.39 ± 0.1 µM	EC50 [2, 11]: 0.81 ± 0.5 µM
CCCCCCCCc1ccc(CCC(N)(CO)COP(=O)(O)O)cc1 (stereo not shown) [FTY720 Phosphate, FTY720-P]	> 258 µM	> 258 µM	1.4	93.8 ± 3.3 µM	168 ± 25 µM	127 ± 22 µM	–
C1CN2CCC1CC2 [Quinuclidine hydrochloride, Quinuclidine]	> 677 µM	> 677 µM	–	478 ± 174 µM	> 677 µM	–	SI (Selectivity Index) [2]: >1.4; EC50 at 72 h [3, 12]: > 677 µM
CCCCCCC(=O)CCCCCC/C=C/C[C@@H](O)[C@H](O)[C@@](N)(CO)C(=O)O [Myriocin]	> 249 µM	> 249 µM	>1.9	130 ± 34 µM	231 ± 25 µM	–	EC50 at 72 h [3, 13]: > 249 µM
Cc1cc2ncc(NC(=O)Nc3ccc(F)cc3F)c(-c3ccccc3Cl)c2cc1C [TMP-153]	106 ± 27 µM	> 228 µM	1.4	–	3.9 ± 2.1 µM	0.12 ± 0.03 µM	–
CCCCC(C)C(OC(=O)CC(CC(=O)O)C(=O)O)C(CC(C)CC(O)CCCCC(O)CC(O)C(C)N)OC(=O)CC(CC(=O)O)C(=O)O (stereo not shown) [Fumonisin B1]	–	–	>1.8	–	–	–	EC50 ([1]; STIB980, 72 h, read-out: Epimastigotes (mean ± SD) EC50): > 92 µM; EC90 ([1]; STIB980, 72 h, read-out: Epimastigotes (mean ± SD) EC90): > 92 µM; EC50 [2, 15]: 50.8 ± 5.7 µM; EC90 [2, 15]: 84 ± 9.1 µM; EC50 at 72 h [3, 13]: > 92 µM
CCCCCCCCCC(=O)NC(CN1CCOCC1)C(O)c1ccccc1 (stereo not shown) [PDMP (hydrochloride), PDMP]	47.9 ± 9.4 µM	88.7 ± 18 µM	–	12.5 ± 2.9 µM	24.6 ± 9 µM	–	SI (Selectivity Index) [2]: 2.7; EC50 at 72 h [3, 12]: 33.5 ± 3.1 µM
